Test results: patent US9446039B2, “Aminoheteroaryl compounds as MTH1 inhibitors” (CEMM—FORSCHUNGSZENTRUM FÜR MOLEKULARE MEDIZIN GMBH, priority 2012, dated 2016)

Tests used:
Assay type in all cases: binding
[1] = target: T1, SW480 colon carcinoma cells lysate proteins (Homo sapiens, UniProt Q9NSD9); conditions: PreyGene FARSB
T1 sequence (Q9NSD9 1-589): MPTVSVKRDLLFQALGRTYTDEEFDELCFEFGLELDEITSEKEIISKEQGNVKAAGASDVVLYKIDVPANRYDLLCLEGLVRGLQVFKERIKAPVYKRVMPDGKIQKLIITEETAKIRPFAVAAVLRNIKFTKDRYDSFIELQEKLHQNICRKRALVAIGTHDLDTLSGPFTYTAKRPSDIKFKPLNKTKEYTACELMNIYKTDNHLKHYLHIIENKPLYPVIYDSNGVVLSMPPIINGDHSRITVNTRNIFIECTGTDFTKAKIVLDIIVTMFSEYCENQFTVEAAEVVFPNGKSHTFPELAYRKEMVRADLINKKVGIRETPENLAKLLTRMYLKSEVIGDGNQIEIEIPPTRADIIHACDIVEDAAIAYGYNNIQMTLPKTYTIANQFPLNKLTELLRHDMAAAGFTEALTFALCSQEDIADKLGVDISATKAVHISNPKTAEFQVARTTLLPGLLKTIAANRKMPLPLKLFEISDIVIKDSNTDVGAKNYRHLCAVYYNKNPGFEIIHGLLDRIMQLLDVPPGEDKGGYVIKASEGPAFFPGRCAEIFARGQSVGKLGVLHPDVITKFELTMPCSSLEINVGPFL

[2] = target: T2, SW480 colon carcinoma cells lysate proteins (Homo sapiens, UniProt P61916); conditions: PreyGene NPC2
T2 sequence (P61916 20-151): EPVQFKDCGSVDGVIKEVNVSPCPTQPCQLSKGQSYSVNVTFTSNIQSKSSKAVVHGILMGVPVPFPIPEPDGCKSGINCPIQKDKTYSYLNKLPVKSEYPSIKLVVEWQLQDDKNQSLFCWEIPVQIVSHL

[3] = target: SW480 colon carcinoma cells lysate proteins (Homo sapiens, UniProt P23526); conditions: PreyGene AHCY
[4] = target: SW480 colon carcinoma cells lysate proteins (Homo sapiens, UniProt O75874); conditions: PreyGene IDH1
[5] = target: T3, SW480 colon carcinoma cells lysate proteins (Homo sapiens, UniProt Q9BVC6); conditions: PreyGene TMEM109; SW480 cells
T3 sequence (Q9BVC6 34-243): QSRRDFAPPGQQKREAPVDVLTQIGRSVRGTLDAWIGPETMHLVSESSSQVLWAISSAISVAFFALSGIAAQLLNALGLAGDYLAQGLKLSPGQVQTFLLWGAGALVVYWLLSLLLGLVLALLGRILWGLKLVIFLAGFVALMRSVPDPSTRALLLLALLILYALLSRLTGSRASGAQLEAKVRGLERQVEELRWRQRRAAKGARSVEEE

[6] = target: SW480 colon carcinoma cells lysate proteins (Homo sapiens, UniProt P62826); conditions: PreyGene RAN
[7] = target: SW480 colon carcinoma cells lysate proteins (Homo sapiens, UniProt Q562R1); conditions: PreyGene ACTBL2; SW480 cells
[8] = target: T4, SW480 colon carcinoma cells lysate proteins (Homo sapiens, UniProt Q99497); conditions: PreyGene PARK7
T4 sequence (Q99497 1-189): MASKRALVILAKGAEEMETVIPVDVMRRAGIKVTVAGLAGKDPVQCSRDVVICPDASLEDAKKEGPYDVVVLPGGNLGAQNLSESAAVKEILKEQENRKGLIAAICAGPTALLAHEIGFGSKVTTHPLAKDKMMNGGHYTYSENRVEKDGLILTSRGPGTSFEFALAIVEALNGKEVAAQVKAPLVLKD

[9] = target: T5, SW480 colon carcinoma cells lysate proteins (Homo sapiens, UniProt P52565); conditions: PreyGene ARHGDIA
T5 sequence (P52565 1-204): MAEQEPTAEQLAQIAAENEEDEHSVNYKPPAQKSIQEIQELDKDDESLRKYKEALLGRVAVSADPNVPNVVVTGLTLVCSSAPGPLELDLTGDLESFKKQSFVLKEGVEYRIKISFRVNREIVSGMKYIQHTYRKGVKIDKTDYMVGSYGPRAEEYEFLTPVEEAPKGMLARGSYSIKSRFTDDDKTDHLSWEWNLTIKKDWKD

Chain of SW480 colon carcinoma cells lysate proteins (Homo sapiens, UniProt O75874) (O75874 whole entry): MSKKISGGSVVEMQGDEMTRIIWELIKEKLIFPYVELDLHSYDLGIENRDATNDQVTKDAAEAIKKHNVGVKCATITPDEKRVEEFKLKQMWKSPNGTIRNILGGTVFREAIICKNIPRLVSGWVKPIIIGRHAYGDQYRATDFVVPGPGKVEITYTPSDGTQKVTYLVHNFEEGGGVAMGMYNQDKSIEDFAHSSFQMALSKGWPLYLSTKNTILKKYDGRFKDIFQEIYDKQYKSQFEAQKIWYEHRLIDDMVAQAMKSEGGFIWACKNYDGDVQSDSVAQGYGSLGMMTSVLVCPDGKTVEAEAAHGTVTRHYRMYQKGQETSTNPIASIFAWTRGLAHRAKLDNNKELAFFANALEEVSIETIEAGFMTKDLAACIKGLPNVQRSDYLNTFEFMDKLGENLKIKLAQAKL
Chain of SW480 colon carcinoma cells lysate proteins (Homo sapiens, UniProt Q562R1) (Q562R1 whole entry): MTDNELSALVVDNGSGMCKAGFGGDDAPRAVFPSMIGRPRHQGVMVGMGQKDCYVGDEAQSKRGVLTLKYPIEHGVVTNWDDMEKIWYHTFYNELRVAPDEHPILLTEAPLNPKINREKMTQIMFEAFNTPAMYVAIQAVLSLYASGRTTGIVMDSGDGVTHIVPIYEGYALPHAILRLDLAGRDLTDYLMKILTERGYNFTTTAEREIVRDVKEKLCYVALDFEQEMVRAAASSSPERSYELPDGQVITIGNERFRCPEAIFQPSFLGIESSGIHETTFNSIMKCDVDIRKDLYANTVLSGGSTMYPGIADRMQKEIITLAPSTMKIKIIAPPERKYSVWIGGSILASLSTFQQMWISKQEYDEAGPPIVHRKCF
Chain of SW480 colon carcinoma cells lysate proteins (Homo sapiens, UniProt P23526) (P23526 whole entry): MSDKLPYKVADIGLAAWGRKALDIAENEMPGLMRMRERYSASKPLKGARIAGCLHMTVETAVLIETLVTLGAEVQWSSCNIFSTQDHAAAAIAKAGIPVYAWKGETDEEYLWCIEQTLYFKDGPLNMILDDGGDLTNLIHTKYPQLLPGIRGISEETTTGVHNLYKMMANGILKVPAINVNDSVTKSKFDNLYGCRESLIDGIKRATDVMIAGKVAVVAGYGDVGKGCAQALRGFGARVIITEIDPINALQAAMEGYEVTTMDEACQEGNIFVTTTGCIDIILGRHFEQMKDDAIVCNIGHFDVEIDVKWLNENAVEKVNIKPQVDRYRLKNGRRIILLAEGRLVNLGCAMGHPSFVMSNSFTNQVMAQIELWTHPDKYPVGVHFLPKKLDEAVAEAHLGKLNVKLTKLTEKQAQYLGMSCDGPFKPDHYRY

Compound: C[C@H](Oc1cc(-c2cnn(C3CCNCC3)c2)cnc1N)c1c(Cl)ccc(F)c1Cl [(5)-crizotinib]
- AvgP [1]: 0.3413
- SC.Exp. 1-1 [1]: 3
- SC.Exp. 1-2 [1]: 2
- SC.Exp. 2-1 [1]: 0
- SC.Exp. 2-2 [1]: 0
- Sum (SC.Exp.) [1]: 5
- AvgP [2]: 0.3813
- SC.Exp. 1-1 [2]: 2
- SC.Exp. 1-2 [2]: 2
- SC.Exp. 2-1 [2]: 0
- SC.Exp. 2-2 [2]: 0
- Sum (SC.Exp.) [2]: 4
- AvgP [3]: 0.4716
- SC.Exp. 1-1 [3]: 4
- SC.Exp. 1-2 [3]: 4
- SC.Exp. 2-1 [3]: 0
- SC.Exp. 2-2 [3]: 0
- Sum (SC.Exp.) [3]: 8
- AvgP [4]: 0.1991
- SC.Exp. 1-1 [4]: 3
- SC.Exp. 1-2 [4]: 0
- SC.Exp. 2-1 [4]: 0
- SC.Exp. 2-2 [4]: 0
- Sum (SC.Exp.) [4]: 3
- AvgP [5]: 0
- SC.Exp. 1-1 [5]: 1
- SC.Exp. 1-2 [5]: 1
- SC.Exp. 2-1 [5]: 0
- SC.Exp. 2-2 [5]: 1
- SC.Exp. Sum [5]: 3
- AvgP [6]: 0.3036
- SC.Exp. 1-1 [6]: 5
- SC.Exp. 1-2 [6]: 6
- SC.Exp. 2-1 [6]: 0
- SC.Exp. 2-2 [6]: 0
- Sum (SC.Exp.) [6]: 11
- AvgP [7]: 0
- SC.Exp. 1-1 [7]: 1
- SC.Exp. 1-2 [7]: 1
- SC.Exp. 2-1 [7]: 0
- SC.Exp. 2-2 [7]: 0
- SC.Exp. Sum [7]: 2
- AvgP [8]: 0.4547
- SC.Exp. 1-1 [8]: 6
- SC.Exp. 1-2 [8]: 7
- SC.Exp. 2-1 [8]: 0
- SC.Exp. 2-2 [8]: 0
- Sum (SC.Exp.) [8]: 13
- AvgP [9]: 0.4128
- SC.Exp. 1-1 [9]: 2
- SC.Exp. 1-2 [9]: 3
- SC.Exp. 2-1 [9]: 0
- SC.Exp. 2-2 [9]: 0
- Sum (SC.Exp.) [9]: 5
